# Measured values as given in ChEMBL document CHEMBL6078717, “An overview of GPX4-targeting TPDs for cancer therapy” (Bioorg Med Chem, 2025).
# pIC50: −log10 of the molar value.
# What was measured:
# [1] = PROTAC activity at GPX4/E3 ligase in human HT-1080 cells assessed as degradation of GPX4 protein incubated for 24 hrs by Western blotting analysis; format: cell-based; details: HT-1080, 24 h
# DU-145 = assay: Antiproliferative activity against human DU-145 cells assessed as cell growth inhibition by SRB assay; format: functional, cell-based
# MDA-MB-231 = assay: Antiproliferative activity against human MDA-MB-231 cells assessed as reduction in cell viability after 48 hrs by SRB assay; format: functional, cell-based; details: MDA-MB-231, 48 h
# 786-0 = assay: Antiproliferative activity against human 786-0 cells assessed as cell growth inhibition measured for 48 hrs by SRB assay; format: functional, cell-based; details: 786-0, 48 h
# Calu-1 = assay: Antiproliferative activity against human Calu-1 cells assessed as inhibition of cell growth incubated for 24 hrs by MTT assay; format: functional, cell-based; details: Calu-1, 24 h
# [2] = Antiproliferative activity against HEK293T cells assessed as reduction in cell growth; format: toxicity, cell-based, HEK-293T; details: human
DC50 [1],pIC50 (DU-145),pIC50 (MDA-MB-231),pIC50 (786-0),pIC50 (Calu-1),Compound,pIC50 [2]
0.057 µM,7.04,7.51,6.90,,Cc1onc(C(=O)N2CCN(C(c3ccc(Cl)cc3)c3ccc(OCCOCCOCC(=O)NCC45CC6CC(CC(C6)C4)C5)cc3)CC2)c1[N+](=O)[O-] (centres undefined),
0.21 µM,,,,5.53,O=C1CCC(N2C(=O)c3cccc(NCCOCCOCCOCCN(C(=O)CCl)C(C(=O)NCc4ccccc4)c4cccs4)c3C2=O)C(=O)N1 (centres undefined),
,,,,,COC(=O)c1ccc([C@H]2c3[nH]c4ccccc4c3C[C@H](C(=O)OC)N2C(=O)CCl)cc1,6.51
0.13 µM,,,,6.07,O=C1CCC(N2C(=O)c3cccc(NCCCCN(C(=O)CCl)C(C(=O)NCc4ccccc4)c4cccs4)c3C2=O)C(=O)N1 (centres undefined),
